From patent US7074807B2, “Compositions and methods for inducing cell death” (Georgetown University, priority 1998, dated 2006)

Assays:
PC-3 cells = assay: Apoptosis assay (annexin V-FITC/propidium iodide flow cytometry), serum-free; conditions: 10 mM, 2 h, PC-3
Experimental: (§1) FIGS. (7A1–7A3), (7B1–7B2), (7C1–7C3), (7D1–7D2), (7E1–7E3), (7F1–7F2). […] Cells were grown in serum-free medium overnight in T-25 flasks and treated with tempol (10 mM) or tempo (10 mM) for various times, trypsinized, and then resuspended in 200 ul 1× binding buffer as described in experimental procedures. The cell suspension was double-stained with annexin V-FITC and propidium iodide and analyzed by flow cytometry. Background signal was determined by comparison with double-stained, single-stained, or unstained control cells. (7A1–7A3), (7C1–7C3), and (7E1–7E3) are cytograms showing a relative distribution of viable (V), apoptotic (A), and necrotic (N) cells at 2 h following tempol or tempo treatment of MDA-MB 231 cells (A), PCI-04A cells (C), and PC-3 cells (E). (7B1–7B3), (7D1–7D2), and (7F1–7F2) are time course analyses of MDA-MB 231 cells (B), PCT-04A cells (D), and PC-3 cells (F). 100,000 cells were analyzed at each time point in triplicate (B) or quadruplicate (D and F). Solid bars, 1% ethanol, striped bars, 10 mM tempol, empty bars, 10 mM tempo. […] Data shown are representative from three to four independent experiments. (7B1–7B2), Time course analysis of MDA-MB 231 cells undergoing apoptosis (annexin V-FITC staining) (7B1), or necrosis (propidium iodide staining) (7B2). Values shown are mean±s.d. of triplicate determinations per time point in each treatment category, and representative of three to four independent experiments. […] (7D1–7D2), Time course analysis of PCI-04A cells undergoing apoptosis (annexin V-FITC staining) (7D1), or necrosis (propidium iodide staining) (7D2). Values shown are mean±s.d. of quadruplicate determinations per time point in each treatment category. […] (7F1–7F2), Time course analysis of PC-3 cells undergoing apoptosis (annexin V-FITC staining) (7F1), or necrosis (propidium iodide staining) (7F2). Values shown are mean±s.d. of quadruplicate determinations per time point in each treatment category. Control/C, cells treated with 1% ethanol for 2 h.
Apoptosis Assay—ApoAlert Annexin V apoptosis detection system (Clontech Lab Inc., Palo Alto, Calif.) was used to measure the relative distribution of apoptotic and necrotic cells. Briefly, cells were seeded at a density of 1×10^6 cells per 25 cm^2 tissue culture flask in medium containing 10% FBS overnight, followed by washing twice in serum-free medium. Cells were maintained overnight in serum-free medium and exposed to tempol (10 mM) or tempo (10 mM) for various times. […] The intensity of the dye uptake by cells was detected using FACStar plus Flow Cytometer (Becton Dickerson, Lincoln Park, N.J.), and data were analyzed using Reproman True Facts software (Seattle, Wash.). […]

MDA-MB 231 cells [1] = assay: Cell viability assay (WST-1); format: cell-based, human; conditions: 10 mM, within 2 h
Experimental: FIG. 6. Effects of tempol and tempo on cell viability. […] Control cells were grown overnight in serum-free medium, followed by treatment with 1% ethanol for various times. Fresh serum-free medium (100 ul) was added to each well in all plates, including controls followed by the addition of WST-1 (10 ul). Plates were incubated for 2 h at 37° C. and the color solution developed by WST-1 was quantified using a MR 700 microplate reader at OD=450/600. Values shown are mean±s.d. of 6 determinations per treatment condition in a representative experiment, and the experiment was repeated three times.
Cell Viability Assay—Effects of nitroxide compounds on cell viability and proliferation were determined using a cell viability detection kit (4-[3-(4-Iodophenyl)-2-(4-nitrophenyl)-2H-5-tetrazolio]-1,3-benzene disulfonate, WST-1) according to the manufacturer's instructions (Boehringer Mannheim, Indianapolis, Ind.). Briefly, MDA-MB 231 cells were seeded onto 96 well plates at density of 10,000 cells per well and maintained overnight in 10% FBS containing medium. The cells were then washed twice with phosphate buffered saline and re-fed in serum-free medium. The following day, cells were treated for various times with tempol (10 mM) or tempo (10 mM), using six wells per treatment condition. […] Plates were incubated for 2 h at 37° C. and analyzed at OD=450/600 using a MR 700 microplate reader.

MDA-MB 231 cells [2] = assay: Apoptosis assay (annexin V-FITC/propidium iodide flow cytometry); conditions: 10 mM, MDA-MB 231; for apoptosis/necrosis, time course analysis: up to 3 h
Experimental: as §1
Apoptosis Assay—ApoAlert Annexin V apoptosis detection system (Clontech Lab Inc., Palo Alto, Calif.) was used to measure the relative distribution of apoptotic and necrotic cells. Briefly, cells were seeded at a density of 1×10^6 cells per 25 cm^2 tissue culture flask in medium containing 10% FBS overnight, followed by washing twice in serum-free medium. Cells were maintained overnight in serum-free medium and exposed to tempol (10 mM) or tempo (10 mM) for various times. This was followed by rinsing twice with serum-free medium prior to trypsinization, dilution in two volumes of serum-free medium, and centrifugation at 10,000× g. The cell pellet was washed once with PBS and resuspended in 200 ul of 1× binding buffer. The cell suspension was double-labeled with fluorescein isothiocyanate (FITC)-labeled annexin V (10 ul) and propidium iodide (PI) (10 ul) according to the manufacturer's instructions. Unlabeled cells or untreated cells labeled with either FITC-annexin V or PI, or double-labeled served as internal controls for the background signal. The intensity of the dye uptake by cells was detected using FACStar plus Flow Cytometer (Becton Dickerson, Lincoln Park, N.J.), and data were analyzed using Reproman True Facts software (Seattle, Wash.). Viable cells were FITC−/PI−, apoptotic cells were FITC+/PI−, and necrotic cells were FITC+/PI+.

Row | Structure (SMILES) | apoptotic cells (A) (PC-3 cells) [%] | viable cells (V) (PC-3 cells) [%] | decrease in the number of viable cells (MDA-MB 231 cells [1]) | apoptotic cells (A) (MDA-MB 231 cells [2]; 2 h) [%] | viable cells (V) (MDA-MB 231 cells [2]; 2 h) [%] | apoptosis/necrosis, time course analysis (MDA-MB 231 cells [2])
1 | CC1(C)CCCC(C)(C)N1[O] [tempo, 2,2,6,6-tetramethylpiperidine-N-oxyl] | 2.57 | 10.76 | > 50% | 52.42 | 35.83 | steady increase in the number of apoptotic cells for upto 2 h, followed by a considerable increase in the number of necrotic cells by 3 h
2 | CC1(C)CC(O)CC(C)(C)N1[O] [tempol, 4-hydroxy-tempo, reference compound] | 1.20 | – | comparable to control cells | 6.32 | – | did not induce apoptosis or necrosis
